The values that follow come from patent US10898481B2 (priority 2018, dated 2021).

In general, IC50 refers to the midpoint of a concentration-inhibition curve.

For one experiment, the target named is mA2a/CHO (Mus musculus (Mouse), UniProt Q60613). Briefly: cAMP inhibition assay in mA2a/CHO cells, 10 μM adenosine.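 Further: compounds preincubated 30 min at 37 °C before the adenosine challenge, then 30 min further stimulation, readout after 60 min detection reagent incubation at room temperature in 384-well plates.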 Type of experiment: cell-based. Conditions: read-out: cAMP & FLIPR IC50 (nM) mA2a.
Another experiment addresses hA2a/CHO (Homo sapiens (Human), UniProt P29274). Kind of experiment: cAMP inhibition assay in hA2a/CHO cells, 10 μM adenosine.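 Further: compounds added to cells 30 min ahead of adenosine, then a further 30 min at 37 °C with adenosine before cAMP detection.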 In kind it is cell-based. Particulars: read-out: cAMP & FLIPR IC50 (nM) hA2a.
The target in a further experiment is hA2b/CHO (Homo sapiens (Human), UniProt P29275). Briefly: cAMP inhibition assay in hA2b/CHO cells, 10 μM adenosine.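 Further: cells exposed to compound 30 min at 37 °C, then stimulated with adenosine a further 30 min, cAMP read after 60 min at room temperature.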 In kind it is cell-based. Particulars: read-out: cAMP & FLIPR IC50 (nM) hA2b.
The target of experiment [1] is hADORA1/CHO (hA1 expressing) cells (Homo sapiens (Human), UniProt P30542). Briefly: cell-based. Particulars: FLIPR inhibition, 10 μM adenosine, read-out: cAMP & FLIPR IC50 (nM) hA1.
hADORA1/CHO (hA1 expressing) cells, sequence (P30542 whole entry): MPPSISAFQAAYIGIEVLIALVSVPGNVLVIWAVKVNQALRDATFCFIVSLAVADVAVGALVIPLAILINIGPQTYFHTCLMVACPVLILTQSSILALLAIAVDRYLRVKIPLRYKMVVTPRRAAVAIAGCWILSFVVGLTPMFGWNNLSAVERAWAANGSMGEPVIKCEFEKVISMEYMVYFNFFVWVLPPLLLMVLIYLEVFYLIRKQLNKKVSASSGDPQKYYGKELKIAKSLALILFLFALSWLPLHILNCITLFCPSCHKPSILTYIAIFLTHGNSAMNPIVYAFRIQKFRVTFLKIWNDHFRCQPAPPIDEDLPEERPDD
Protocol: hADORA1/CHO (hA1 expressing) cells (Genscript) were plated at 1×10^4 cells/well into 384-well polystyrene plates one day before starting the experiment. On the day of experiment, the supernatant was discard and replaced with 40 μL of dye (FLIPR calcium 5 Assay Kit) per well and the plates were incubated for 60 mins at 37° C. plus 5% CO2. Then testing compounds were added at different concentrations for FLIPR™ inhibition assay. After a 400s incubation with compound, 10 μM adenosine was added into the cells, and the signal was captured by FLIPR.

mA2a/CHO, sequence (Q60613 whole entry): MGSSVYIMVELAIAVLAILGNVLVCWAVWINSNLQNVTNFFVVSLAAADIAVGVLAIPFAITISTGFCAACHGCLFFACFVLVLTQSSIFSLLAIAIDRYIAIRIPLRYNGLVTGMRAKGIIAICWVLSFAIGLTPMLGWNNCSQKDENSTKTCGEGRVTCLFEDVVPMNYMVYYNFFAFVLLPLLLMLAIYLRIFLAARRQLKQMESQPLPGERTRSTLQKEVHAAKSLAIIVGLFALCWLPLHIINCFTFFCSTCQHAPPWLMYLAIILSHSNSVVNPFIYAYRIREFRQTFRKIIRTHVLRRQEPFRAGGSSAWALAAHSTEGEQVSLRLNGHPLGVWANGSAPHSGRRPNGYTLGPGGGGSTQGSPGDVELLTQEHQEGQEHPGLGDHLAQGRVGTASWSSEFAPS
hA2a/CHO, sequence (P29274 whole entry): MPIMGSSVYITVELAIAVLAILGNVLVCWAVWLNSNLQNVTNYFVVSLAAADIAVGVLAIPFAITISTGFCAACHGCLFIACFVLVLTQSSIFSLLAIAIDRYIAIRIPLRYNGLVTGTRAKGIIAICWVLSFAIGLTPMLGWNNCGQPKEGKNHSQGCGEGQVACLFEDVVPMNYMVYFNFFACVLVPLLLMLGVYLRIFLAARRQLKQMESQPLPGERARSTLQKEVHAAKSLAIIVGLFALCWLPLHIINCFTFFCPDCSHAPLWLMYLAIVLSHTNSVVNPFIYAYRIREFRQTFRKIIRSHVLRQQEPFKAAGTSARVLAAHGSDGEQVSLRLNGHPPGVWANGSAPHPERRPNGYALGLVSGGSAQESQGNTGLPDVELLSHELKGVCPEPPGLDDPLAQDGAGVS
hA2b/CHO, sequence (P29275 whole entry): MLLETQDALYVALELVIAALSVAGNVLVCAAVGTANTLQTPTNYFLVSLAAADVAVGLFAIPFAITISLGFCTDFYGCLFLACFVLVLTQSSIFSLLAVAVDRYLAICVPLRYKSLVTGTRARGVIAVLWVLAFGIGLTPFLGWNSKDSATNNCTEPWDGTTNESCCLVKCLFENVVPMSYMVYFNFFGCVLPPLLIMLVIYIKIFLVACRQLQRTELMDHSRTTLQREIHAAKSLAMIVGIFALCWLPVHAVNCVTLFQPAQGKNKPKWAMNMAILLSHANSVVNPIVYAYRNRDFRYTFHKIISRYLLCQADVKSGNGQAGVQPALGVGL
Protocol for hA2a/CHO: (§1) hA2a/CHO, hA2b/CHO, hA3/CHO and mA2a/CHO (Genscript) were plated at 5×10^3 cells/well into 384-well polystyrene plates at the day of experiment. Compounds were pre-incubated with cells for 30 min at 37° C., 5% CO2. Then 10 μM adenosine was added to the cells and incubated for 30 min at 37° C., 5% CO2. Detection reagent (CISBIO) was added and the plates were incubated for 60 min at room temperature. The signal was captured by Envision.
Protocol for hA2b/CHO: as §1
Protocol for mA2a/CHO: as §1

As for `Cc1cnc2ccc(-c3nc(C(=O)NCc4cccc(N5CC6(CCN6C)C5)n4)c(N)nc3-c3ncco3)cn12` [Example 171, 3-amino-N-[(6-[1-methyl-1,6-diazaspiro[3.3]heptan-6-yl]pyridin-2-yl)methyl]-6-[3-methylimidazo[1,2-a]pyridin-6-yl]-5-(1,3-oxazol-2-yl)pyrazine-2-carboxamide], the IC50 at mA2a/CHO amounted to 15 nM; on hA2a/CHO, 1 nM; at hA2b/CHO, 228 nM; in experiment [1], 589 nM.
For `Cc1cnc2ccc(-c3nc(C(=O)NCc4cnccc4N(C)C)c(N)nc3-c3ncco3)cn12` [Example 118, 3-amino-N-((4-(dimethylamino)pyridin-3-yl)methyl)-6-(3-methylimidazo[1,2-a]pyridin-6-yl)-5-(oxazol-2-yl)pyrazine-2-carboxamide], the IC50 on mA2a/CHO is 1.7 nM; on hA2a/CHO it was 3.1 nM; at hA2b/CHO, 6.8 nM; in experiment [1] it was 35 nM.
Take `Cc1cnc2ccc(-c3nc(C(=O)NCC4CC4)c(N)nc3-c3ncco3)cn12` [Example 155, 3-amino-N-(cyclopropylmethyl)-6-(3-methylimidazo[1,2-a]pyridin-6-yl)-5-(oxazol-2-yl)pyrazine-2-carboxamide]: the IC50 at mA2a/CHO was 12 nM; at hA2a/CHO, 0.6 nM; at hA2b/CHO it was 188 nM; in experiment [1] it was 3650 nM.
As for `Cc1ccn(-c2nc(N)c(C(=O)NC[C@H]3CCCN3C)nc2-c2ccc3ncc(C)n3c2)n1` [Example 201-2, (R)-3-amino-5-(3-methyl-1H-pyrazol-1-yl)-6-(3-methylimidazo[1,2-a]pyridin-6-yl)-N-((1-methylpyrrolidin-2-yl)methyl)pyrazine-2-carboxamide], the IC50 at mA2a/CHO was 519 nM; at hA2a/CHO, 29 nM; on hA2b/CHO it was more than 10000 nM; in experiment [1], more than 10000 nM.
Turning to `Cc1cnc2ccc(-c3nc(C(=O)NCC4(N(C)C)CC4)c(N)nc3-c3ccc(F)cc3)cn12` [Example 154, 3-amino-N-[[1-(dimethylamino)cyclopropyl]methyl]-5-(4-fluorophenyl)-6-[3-methylimidazo[1,2-a]pyridin-6-yl]pyrazine-2-carboxamide], the IC50 stood at 121 nM at mA2a/CHO, 11 nM at hA2a/CHO, 1150 nM on hA2b/CHO and 10000 nM in experiment [1].
For `Cc1cnc2ccc(-c3nc(C(=O)NC[C@@H]4CCN(C(=O)C5CC5)C4)c(N)nc3-c3ncco3)cn12` [Cmpd. 221, 3-amino-N-[[(3S)-1-cyclopropanecarbonylpyrrolidin-3-yl]methyl]-6-[3-methylimidazo[1,2-a]pyridin-6-yl]-5-(1,3-oxazol-2-yl)pyrazine-2-carboxamide], the IC50 at mA2a/CHO amounted to 33 nM; on hA2a/CHO it was 1.6 nM; on hA2b/CHO it was 1030 nM; in experiment [1], 7540 nM.
Regarding `Cc1cnc2ccc(-c3nc(C(=O)N[C@H]4CCN(C)C4)c(N)nc3-c3ccc(F)cc3)cn12` [Example 200-2, (S)-3-amino-5-(4-fluorophenyl)-6-(3-methylimidazo[1,2-a]pyridin-6-yl)-N-(1-methylpyrrolidin-3-yl)pyrazine-2-carboxamide], the IC50 was 169 nM at mA2a/CHO, 12 nM on hA2a/CHO, 3540 nM on hA2b/CHO and more than 10000 nM in experiment [1].
In the same order, the values of `CN1CCC[C@H]1CNC(=O)c1nc(-c2ccc3ncn(C)c3c2)c(-n2nccn2)nc1N` [Example 130, 3-amino-6-(1-methyl-1H-1,3-benzodiazol-6-yl)-N-[[(2S)-1-methylpyrrolidin-2-yl]methyl]-5-(2H-1,2,3-triazol-2-yl)pyrazine-2-carboxamide] are 2800 nM, 295 nM, not below 10000 nM and 10000 nM.
As for `CNC(=O)CCNC(=O)c1nc(-c2ccc3ncc(C)n3c2)c(-c2ncco2)nc1N` [Example 225, 3-amino-N-(3-(methylamino)-3-oxopropyl)-6-(3-methylimidazo[1,2-a]pyridin-6-yl)-5-(oxazol-2-yl)pyrazine-2-carboxamide], the IC50 at mA2a/CHO was 177 nM; on hA2a/CHO, 32 nM; at hA2b/CHO, 254 nM; in experiment [1], more than 10000 nM.
Turning to `Cc1cnc2ccc(-c3nc(C(=O)NCCC(=O)N4CCCCC4)c(N)nc3-c3ncco3)cn12` [Example 215, 3-amino-6-(3-methylimidazo[1,2-a]pyridin-6-yl)-5-(oxazol-2-yl)-N-(3-oxo-3-(piperidin-1-yl)propyl)pyrazine-2-carboxamide], the IC50 on mA2a/CHO was determined as 9.6 nM; at hA2a/CHO it was 12 nM; on hA2b/CHO, 568 nM; in experiment [1] it was 891 nM.
On the same counts, the results for `CC1CN(c2nc(C(=O)NCc3c(F)cccc3F)c(N)nc2-c2ccc(F)cc2)CC(C)O1` (stereo not shown) [Example 6, 3-amino-N-(2,6-difluorobenzyl)-6-(2,6-dimethylmorpholino)-5-(4-fluorophenyl)pyrazine-2-carboxamide] are 1060 nM, 87 nM, not below 10000 nM and 8840 nM.
In the same order, the values of `Cc1cnc2ccc(-c3nc(C(=O)NCC4COCCO4)c(N)nc3-c3ncco3)cn12` (racemic) [Example 211, rac-N-((1,4-dioxan-2-yl)methyl)-3-amino-6-(3-methylimidazo[1,2-a]pyridin-6-yl)-5-(oxazol-2-yl)pyrazine-2-carboxamide] are 19 nM, 3.6 nM, 160 nM and 319 nM.
In the case of `COCCNC(=O)c1nc(-c2ccc3ncc(C)n3c2)c(-n2nccn2)nc1N` [Example 243, 3-amino-N-(2-methoxyethyl)-6-(3-methylimidazo[1,2-a]pyridin-6-yl)-5-(2H-1,2,3-triazol-2-yl)pyrazine-2-carboxamide], the IC50 on mA2a/CHO worked out at 30 nM; at hA2a/CHO it was 7.6 nM; at hA2b/CHO, 181 nM; in experiment [1] it was 92 nM.
`Cc1cnc2ccc(-c3nc(C(=O)NCC4CCCCO4)c(N)nc3-c3ncco3)cn12` (single isomer, unassigned; isomer 1) [Example 165, 3-amino-6-(3-methylimidazo[1,2-a]pyridin-6-yl)-5-(oxazol-2-yl)-N-((tetrahydro-2H-pyran-2-yl)methyl) pyrazine-2-carboxamide (isomer 1)]: the IC50 at mA2a/CHO worked out at 1.42 nM; on hA2a/CHO it was 0.24 nM; on hA2b/CHO, 73 nM; in experiment [1] it was 207 nM.
As to `Cn1cnc2ccc(-c3nc(C(=O)NCc4ncccc4OCC(N)=O)c(N)nc3-c3ccc(F)cc3)cc21` [Example 119, 3-amino-N-[[3-(carbamoylmethoxy)pyridin-2-yl]methyl]-5-(4-fluorophenyl)-6-(1-methyl-1H-1,3-benzodiazol-6-yl)pyrazine-2-carboxamide], the IC50 is 4.7 nM on mA2a/CHO, 1.1 nM on hA2a/CHO, 31 nM on hA2b/CHO and 41 nM in experiment [1].
In the same order, the values of `Cc1cnc2ccc(-c3nc(C(=O)NC[C@H]4CCOC4)c(N)nc3-n3nccn3)cn12` [Example 242, (R)-3-amino-6-(3-methylimidazo[1,2-a]pyridin-6-yl)-N-((tetrahydrofuran-3-yl)methyl)-5-(2H-1,2,3-triazol-2-yl) pyrazine-2-carboxamide] are 51 nM, 2.9 nM, 683 nM and 294 nM.
